According to ChEMBL document CHEMBL1151474, “Replication of Colonic Crohn's Disease Mucosal Escherichia coli Isolates within Macrophages and Their Susceptibility to Antibiotics” (Antimicrob Agents Chemother, 2008):
≈ marks a conversion by molar mass, not a printed value. Calls of active or inactive are those of the source. The calls are words filed in the database; no cut-off is given here.

What was measured:
Escherichia coli [1] = experiment: Antibacterial activity against mucosa-associated Escherichia coli isolates isolated from patients with Crohn's disease by disk diffusion method; assay type: functional
Escherichia coli [2] = experiment: Antibacterial activity against Escherichia coli isolate HM605 isolated from colonic mucosal biopsies of patient with Crohn's disease after 24 hrs by Etest antibiotic concentration gradient method; assay type: functional; settings: isolate HM605, 24 h
Escherichia coli [3] = experiment: Antibacterial activity against Escherichia coli ATCC 25922 after 24 hrs by Etest antibiotic concentration gradient method; assay type: functional, organism-based
Escherichia coli [4] = experiment: Antibacterial activity against Escherichia coli isolate HM605 isolated from colonic mucosal biopsies of patient with Crohn's disease
Escherichia coli [5] = experiment: Antibacterial activity against gentamicin-treated internalized Escherichia coli isolate HM605 isolated from colonic mucosal biopsies of patient with Crohn's disease in mouse J774A1 cells assessed as intracellular killing of bacteria at 3.2 ug/ml after 3 hrs; assay type: functional, J774.A1
Escherichia coli [6] = experiment: Antibacterial activity against extracellular Escherichia coli isolate HM605 isolated from colonic mucosal biopsies of patient with Crohn's disease at 0.1 to 100 ug/ml after 3 hrs; assay type: functional, organism-based
Escherichia coli [7] = experiment: Antibacterial activity against gentamicin-treated internalized Escherichia coli isolate HM605 in mouse J774A1 cells isolated from colonic mucosal biopsies of patient with Crohn's disease assessed as intracellular killing of bacteria at 0.1 to 100 ug/ml after 3 hrs; assay type: functional, organism-based; settings: J774.A1
Escherichia coli [8] = experiment: Antibacterial activity against gentamicin-treated internalized Escherichia coli isolate HM605 in mouse J774A1 cells isolated from colonic mucosal biopsies of patient with Crohn's disease assessed as intracellular killing of bacteria at 0.1 to 100 ug/ml after 6 hrs; assay type: functional, organism-based; settings: J774.A1
Escherichia coli [9] = experiment: Antibacterial activity against gentamicin-treated internalized Escherichia coli isolate HM605 in mouse J774A1 cells isolated from colonic mucosal biopsies of patient with Crohn's disease assessed as intracellular killing of bacteria at 0.1 to 100 ug/ml after 24 hrs; assay type: functional, organism-based; settings: J774.A1
Escherichia coli [10] = experiment: Antibacterial activity against Escherichia coli isolate HM605 isolated from colonic mucosal biopsies of patient with Crohn's disease assessed as killing of bacteria at 100 ug/ml; assay type: functional
Escherichia coli [11] = experiment: Antibacterial activity against extracellular Escherichia coli isolate HM605 isolated from colonic mucosal biopsies of patient with Crohn's disease at 0.01 to 10 ug/ml after 3 hrs; assay type: functional, organism-based
Escherichia coli [12] = experiment: Antibacterial activity against extracellular Escherichia coli isolate HM605 isolated from colonic mucosal biopsies of patient with Crohn's disease assessed as colony count at 0.1 to 100 ug/ml after 3 hrs; assay type: functional, organism-based
Escherichia coli [13] = experiment: Antibacterial activity against gentamicin-treated internalized Escherichia coli isolate HM605 in mouse J774A1 cells isolated from colonic mucosal biopsies of patient with Crohn's disease assessed as intracellular killing of bacteria at 10% compound Cmax after 3 hrs; assay type: functional, J774.A1
Escherichia coli [14] = experiment: Antibacterial activity against gentamicin-treated internalized Escherichia coli isolate LF82 in mouse J774A1 cells isolated from chronic ileal lesions of patient with Crohn's disease assessed as intracellular killing of bacteria at 10% compound Cmax after 3 hrs; assay type: functional, J774.A1
Escherichia coli [15] = experiment: Antibacterial activity against gentamicin-treated internalized Escherichia coli isolate HM580 in mouse J774A1 cells isolated from colonic mucosal biopsies of patient with Crohn's disease assessed as intracellular killing of bacteria at 10% compound Cmax after 3 hrs; assay type: functional, J774.A1
Escherichia coli [16] = experiment: Antibacterial activity against gentamicin-treated internalized Escherichia coli isolate HM615 in mouse J774A1 cells isolated from colonic mucosal biopsies of patient with Crohn's disease assessed as intracellular killing of bacteria at 10% compound Cmax after 3 hrs; assay type: functional, J774.A1
J774.A1 [17] = experiment: Cytotoxicity against mouse J774A1 cells assessed as release of adenylate kinase at 100 ug/ml after 3 hrs […] relative to control; assay type: cell-based; settings: j774.a1, 3 h
[18] = Cmax in healthy human at 500 mg administered orally; assay type: ADME, organism-based; set-up: dose 500 mg, route oral; settings: in vivo, po
Escherichia coli [19] = experiment: Antibacterial activity against Escherichia coli isolates isolated from patients with Crohn's disease at 15 ug/disk by susceptibility testing disk method; assay type: functional
Escherichia coli [20] = experiment: Antibacterial activity against Escherichia coli isolate HM154 isolated from colonic mucosal biopsies of patient with Crohn's disease after 24 hrs by Etest antibiotic concentration gradient method; assay type: functional; settings: isolate HM154, 24 h
Escherichia coli [21] = experiment: Antibacterial activity against Escherichia coli isolate HM580 isolated from colonic mucosal biopsies of patient with Crohn's disease after 24 hrs by Etest antibiotic concentration gradient method; assay type: functional; settings: isolate HM580, 24 h
Escherichia coli [22] = experiment: Antibacterial activity against gentamicin-treated internalized Escherichia coli isolate HM605 isolated from colonic mucosal biopsies of patient with Crohn's disease in mouse J774A1 cells assessed as intracellular killing of bacteria at 0.4 ug/ml after 3 hrs; assay type: functional, J774.A1
Escherichia coli [23] = experiment: Antibacterial activity against Escherichia coli isolate HM615 isolated from colonic mucosal biopsies of patient with Crohn's disease after 24 hrs by Etest antibiotic concentration gradient method; assay type: functional; settings: isolate HM615, 24 h
Escherichia coli [24] = experiment: Antibacterial activity Escherichia coli isolate HM413 isolated from ileo-colonic mucosal biopsies of patient with Crohn's disease after 24 hrs by Etest antibiotic concentration gradient method; assay type: functional; settings: isolate HM413, 24 h
Escherichia coli [25] = experiment: Antibacterial activity Escherichia coli isolate HM419 isolated from ileo-colonic mucosal biopsies of patient with Crohn's disease after 24 hrs by Etest antibiotic concentration gradient method; assay type: functional; settings: isolate HM419, 24 h
Escherichia coli [26] = experiment: Antibacterial activity against Escherichia coli isolate HM95 isolated from ileal mucosal biopsies of patient with Crohn's disease after 24 hrs by Etest antibiotic concentration gradient method; assay type: functional; settings: isolate HM95, 24 h
Escherichia coli [27] = experiment: Antibacterial activity against mucosa-associated Escherichia coli isolate HM428 isolated from patient with irritable bowel syndrome or sporadic polyps after 24 hrs by Etest antibiotic concentration gradient method; assay type: functional; settings: isolate HM428, 24 h
Escherichia coli [28] = experiment: Antibacterial activity against mucosa-associated Escherichia coli isolate HM454 isolated from patient with irritable bowel syndrome or sporadic polyps after 24 hrs by Etest antibiotic concentration gradient method; assay type: functional; settings: isolate HM454, 24 h
Escherichia coli [29] = experiment: Antibacterial activity against mucosa-associated Escherichia coli isolate HM456 isolated from patient with irritable bowel syndrome or sporadic polyps after 24 hrs by Etest antibiotic concentration gradient method; assay type: functional; settings: isolate HM456, 24 h
[30] = Cmax in patient with Crohn's disease at 500 mg administered orally; assay type: ADME, organism-based; set-up: dose 500 mg, route oral; settings: human, in vivo, po
Escherichia coli [31] = experiment: Antibacterial activity against Escherichia coli isolates isolated from patients with Crohn's disease at 5 ug/disk by susceptibility testing disk method; assay type: functional
Escherichia coli [32] = experiment: Antibacterial activity against gentamicin-treated internalized Escherichia coli isolate HM605 isolated from colonic mucosal biopsies of patient with Crohn's disease in mouse J774A1 cells assessed as intracellular killing of bacteria at 3 ug/ml after 3 hrs; assay type: functional, J774.A1
J774.A1 [33] = experiment: Cytotoxicity against mouse J774A1 cells assessed as macrophage number at 3 ug/ml after 3 hrs by total cell protein assay; assay type: cell-based; settings: j774.a1, 3 h
Escherichia coli [34] = experiment: Antibacterial activity against Escherichia coli K-12 after 24 hrs by Etest antibiotic concentration gradient method; assay type: functional; settings: K-12, 24 h
[35] = Cmax in immunodeficiency virus-infected patient at 800 mg, po by high-pressure liquid chromatography; settings: human, in vivo
[36] = Cmax in healthy human at 160 mg administered orally; settings: in vivo, po
Homo sapiens = organism: Homo sapiens; experiment: Cmax in human; assay type: ADME, organism-based; settings: in vivo
Escherichia coli [37] = experiment: Antibacterial activity against gentamicin-treated internalized Escherichia coli isolate HM605 in mouse J774A1 cells isolated from colonic mucosal biopsies of patient with Crohn's disease assessed as intracellular killing of bacteria at 18 ug/ml after 3 hrs; assay type: functional, organism-based; settings: J774.A1
Escherichia coli [38] = experiment: Antibacterial activity against gentamicin-treated internalized Escherichia coli isolate HM605 in mouse J774A1 cells isolated from colonic mucosal biopsies of patient with Crohn's disease assessed as intracellular killing of bacteria at 18 ug/ml after 6 hrs; assay type: functional, organism-based; settings: J774.A1
Escherichia coli [39] = experiment: Antibacterial activity against gentamicin-treated internalized Escherichia coli isolate HM605 in mouse J774A1 cells isolated from colonic mucosal biopsies of patient with Crohn's disease assessed as reduction in intracellular bacterial viability at 18 ug/ml after 24 hrs; assay type: functional, organism-based; settings: J774.A1

| Compound | Activity (Escherichia coli [1]) [%] | MIC (Escherichia coli [2]) [µg/mL] | Activity (Escherichia coli [3]) | MBC (Escherichia coli [4]) [µg/mL] | Activity (Escherichia coli [11]) | Activity (Escherichia coli [13]) [%] | Activity (Escherichia coli [14]) [%] | Activity (Escherichia coli [15]) [%] | Activity (Escherichia coli [16]) [%] | Activity (J774.A1 [17]) [%] | MIC (Escherichia coli [20]) [µg/mL] | MIC (Escherichia coli [21]) [µg/mL] | MIC (Escherichia coli [23]) [µg/mL] | MIC (Escherichia coli [24]) [µg/mL] | MIC (Escherichia coli [25]) [µg/mL] | MIC (Escherichia coli [26]) [µg/mL] | MIC (Escherichia coli [27]) [µg/mL] | MIC (Escherichia coli [29]) [µg/mL] | other results |
| --- | --- | --- | --- | --- | --- | --- | --- | --- | --- | --- | --- | --- | --- | --- | --- | --- | --- | --- | --- |
| CC1(C)S[C@@H]2[C@H](NC(=O)[C@H](N)c3ccccc3)C(=O)N2[C@H]1C(=O)O [AMPICILLIN] | 95 | > 256 | Active | > 100 | Active | 20.4 | 10.9 | 9.6 | 13.8 | 90 |  |  |  |  |  |  |  |  | Activity (Escherichia coli [5]): 11.1%; Activity (Escherichia coli [6]): Active; Activity (Escherichia coli [7]): inactive; Activity (Escherichia coli [8]): inactive; Activity (Escherichia coli [9]): inactive; Activity (Escherichia coli [10]): 99.8%; Activity (Escherichia coli [12]): Active; Cmax [18]: 3200 ng/mL |
| CC[C@H]1OC(=O)[C@H](C)[C@@H](O[C@H]2C[C@@](C)(OC)[C@@H](O)[C@H](C)O2)[C@H](C)[C@@H](O[C@@H]2O[C@H](C)C[C@H](N(C)C)[C@H]2O)[C@](C)(O)C[C@@H](C)CN(C)[C@H](C)[C@@H](O)[C@]1(C)O [AZITHROMYCIN] |  | 3 (≈ 4.01 µM) |  | 5 (≈ 6.68 µM) | Active |  |  |  |  | 90 | ≤ 2 | ≤ 2 | ≤ 2 | ≤ 2 | ≤ 2 | ≤ 2 | ≤ 2 | ≤ 2 | Activity (Escherichia coli [19]): 78%; Activity (Escherichia coli [22]): 41%; MIC (Escherichia coli [28]): ≤ 2 µg/mL; Cmax [30]: 400 ng/mL |
| O=C(N[C@H](CO)[C@H](O)c1ccc([N+](=O)[O-])cc1)C(Cl)Cl [CHLORAMPHENICOL] | 62 |  |  |  |  |  |  |  |  | 90 |  |  |  |  |  |  |  |  |  |
| CC[C@H]1OC(=O)[C@H](C)[C@@H](O[C@H]2C[C@@](C)(OC)[C@@H](O)[C@H](C)O2)[C@H](C)[C@@H](O[C@@H]2O[C@H](C)C[C@H](N(C)C)[C@H]2O)[C@](C)(OC)C[C@@H](C)C(=O)[C@H](C)[C@@H](O)[C@]1(C)O [CLARITHROMYCIN] |  | 16 (≈ 21.4 µM) |  | 3 (≈ 4.01 µM) | Active | 33.5 | 55.2 | 57.5 | 81.8 | 90 | ≥ 16 | ≥ 16 | ≥ 16 | ≥ 16 | ≥ 16 | ≥ 16 | ≥ 16 | ≥ 16 | Activity (Escherichia coli [31]): 0%; Activity (Escherichia coli [32]): 62.1%; Activity (J774.A1 [33]): 73.4; MIC (Escherichia coli [28]): ≥ 16 µg/mL; MIC (Escherichia coli [34]): 24 µg/mL (≈ 32.1 µM); Cmax [18]: 3000 ng/mL |
| CCn1cc(C(=O)O)c(=O)c2ccc(C)nc21 [NALIDIXIC ACID] | 100 |  |  |  |  |  |  |  |  | 90 |  |  |  |  |  |  |  |  |  |
| CC1(C)S[C@@H]2[C@H](NC(=O)Cc3ccccc3)C(=O)N2[C@H]1C(=O)O [PENICILLIN G] | 0 |  |  |  |  |  |  |  |  | 90 |  |  |  |  |  |  |  |  |  |
| Cc1cc(NS(=O)(=O)c2ccc(N)cc2)no1 [SULFAMETHOXAZOLE] |  | > 1020 | Active |  |  | 39.8 | 63.2 | 58.7 | 71.5 | 90 |  |  |  |  |  |  |  |  | Cmax [35]: 40000 ng/mL |
| COc1cc(Cc2cnc(N)nc2N)cc(OC)c1OC [TRIMETHOPRIM] | 100 | > 32 | Active | 100 (≈ 344 µM) | Active | 49.1 | 50.2 | 46.9 | 61.7 | 90 | ≤ 4 | ≤ 4 | ≤ 4 | ≤ 4 | ≤ 4 | ≤ 4 | ≤ 4 | ≤ 4 | Cmax [36]: 2300 ng/mL |
| GENTAMICIN [listing 1 of 2 here] |  |  |  |  |  |  |  |  |  | 90 |  |  |  |  |  |  |  |  | Cmax (Homo sapiens): 18000 ng/mL |
| GENTAMICIN [listing 2 of 2 here] | 100 |  |  |  |  |  |  |  |  |  |  |  |  |  |  |  |  |  | Activity (Escherichia coli [37]): 7.8%; Activity (Escherichia coli [38]): 0.3%; Activity (Escherichia coli [39]): 54.8% |
